Test results published in US20110065782A1, “METHODS OF IDENTIFYING COMPOUNDS THAT INHIBIT THE ACTIVATION OF A BIOMOLECULE AND METHODS OF TREATMENT USING THE COMPOUNDS” (priority 2009, published 2011).

Assays:
Edema Factor (EF) = Edema Factor (EF) (Bacillus anthracis, UniProt P40136); assay: biochemical; format: biochemical
calmodulin (CaM) = biological target: T1, calmodulin (CaM) (Homo sapiens, UniProt P0DP23); assay: CaM binding of peptide P233-254 probed by steady-state tryptophan anisotropy fluorescence; conditions: 10 μM TUAdiCl; for fluorescence anisotropy (r) of P233-254 peptide: peptide 2 μM, calcium present
T1 construct: made in house

preformed EF-CaM complex = preformed EF-CaM complex (Bacillus anthracis, UniProt P40136); format: biochemical
Sequence of preformed EF-CaM complex (P40136 whole entry, looked up, one chain of several): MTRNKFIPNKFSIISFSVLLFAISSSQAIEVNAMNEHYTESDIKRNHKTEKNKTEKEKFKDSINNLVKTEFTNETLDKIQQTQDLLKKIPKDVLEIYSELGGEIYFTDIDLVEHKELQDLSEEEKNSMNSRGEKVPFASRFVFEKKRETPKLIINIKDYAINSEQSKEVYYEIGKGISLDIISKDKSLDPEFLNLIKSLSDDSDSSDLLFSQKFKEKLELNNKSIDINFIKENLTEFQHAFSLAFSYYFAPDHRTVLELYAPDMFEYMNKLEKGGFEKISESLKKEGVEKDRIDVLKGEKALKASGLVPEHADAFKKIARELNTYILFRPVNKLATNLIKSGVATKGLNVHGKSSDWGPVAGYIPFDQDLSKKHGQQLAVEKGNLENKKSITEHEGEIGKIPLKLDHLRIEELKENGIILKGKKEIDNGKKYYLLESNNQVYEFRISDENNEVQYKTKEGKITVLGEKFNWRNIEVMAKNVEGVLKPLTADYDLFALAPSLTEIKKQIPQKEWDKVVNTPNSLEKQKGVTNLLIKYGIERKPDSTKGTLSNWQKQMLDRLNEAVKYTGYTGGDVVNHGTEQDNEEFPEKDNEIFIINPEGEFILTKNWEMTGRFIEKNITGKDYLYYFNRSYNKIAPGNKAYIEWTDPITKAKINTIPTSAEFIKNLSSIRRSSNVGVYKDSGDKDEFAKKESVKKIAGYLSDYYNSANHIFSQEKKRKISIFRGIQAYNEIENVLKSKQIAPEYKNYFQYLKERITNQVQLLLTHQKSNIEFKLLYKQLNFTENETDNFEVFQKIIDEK

[1] = biological target: T2, adenylate cyclase toxin (CyaA) (Bordetella pertussis, UniProt P0DKX7); assay: Colorimetric adenylate cyclase enzymatic assay on CyaA; format: biochemical; conditions: concentration not given
T2 construct: made in house
T2 sequence (P0DKX7 whole entry, looked up): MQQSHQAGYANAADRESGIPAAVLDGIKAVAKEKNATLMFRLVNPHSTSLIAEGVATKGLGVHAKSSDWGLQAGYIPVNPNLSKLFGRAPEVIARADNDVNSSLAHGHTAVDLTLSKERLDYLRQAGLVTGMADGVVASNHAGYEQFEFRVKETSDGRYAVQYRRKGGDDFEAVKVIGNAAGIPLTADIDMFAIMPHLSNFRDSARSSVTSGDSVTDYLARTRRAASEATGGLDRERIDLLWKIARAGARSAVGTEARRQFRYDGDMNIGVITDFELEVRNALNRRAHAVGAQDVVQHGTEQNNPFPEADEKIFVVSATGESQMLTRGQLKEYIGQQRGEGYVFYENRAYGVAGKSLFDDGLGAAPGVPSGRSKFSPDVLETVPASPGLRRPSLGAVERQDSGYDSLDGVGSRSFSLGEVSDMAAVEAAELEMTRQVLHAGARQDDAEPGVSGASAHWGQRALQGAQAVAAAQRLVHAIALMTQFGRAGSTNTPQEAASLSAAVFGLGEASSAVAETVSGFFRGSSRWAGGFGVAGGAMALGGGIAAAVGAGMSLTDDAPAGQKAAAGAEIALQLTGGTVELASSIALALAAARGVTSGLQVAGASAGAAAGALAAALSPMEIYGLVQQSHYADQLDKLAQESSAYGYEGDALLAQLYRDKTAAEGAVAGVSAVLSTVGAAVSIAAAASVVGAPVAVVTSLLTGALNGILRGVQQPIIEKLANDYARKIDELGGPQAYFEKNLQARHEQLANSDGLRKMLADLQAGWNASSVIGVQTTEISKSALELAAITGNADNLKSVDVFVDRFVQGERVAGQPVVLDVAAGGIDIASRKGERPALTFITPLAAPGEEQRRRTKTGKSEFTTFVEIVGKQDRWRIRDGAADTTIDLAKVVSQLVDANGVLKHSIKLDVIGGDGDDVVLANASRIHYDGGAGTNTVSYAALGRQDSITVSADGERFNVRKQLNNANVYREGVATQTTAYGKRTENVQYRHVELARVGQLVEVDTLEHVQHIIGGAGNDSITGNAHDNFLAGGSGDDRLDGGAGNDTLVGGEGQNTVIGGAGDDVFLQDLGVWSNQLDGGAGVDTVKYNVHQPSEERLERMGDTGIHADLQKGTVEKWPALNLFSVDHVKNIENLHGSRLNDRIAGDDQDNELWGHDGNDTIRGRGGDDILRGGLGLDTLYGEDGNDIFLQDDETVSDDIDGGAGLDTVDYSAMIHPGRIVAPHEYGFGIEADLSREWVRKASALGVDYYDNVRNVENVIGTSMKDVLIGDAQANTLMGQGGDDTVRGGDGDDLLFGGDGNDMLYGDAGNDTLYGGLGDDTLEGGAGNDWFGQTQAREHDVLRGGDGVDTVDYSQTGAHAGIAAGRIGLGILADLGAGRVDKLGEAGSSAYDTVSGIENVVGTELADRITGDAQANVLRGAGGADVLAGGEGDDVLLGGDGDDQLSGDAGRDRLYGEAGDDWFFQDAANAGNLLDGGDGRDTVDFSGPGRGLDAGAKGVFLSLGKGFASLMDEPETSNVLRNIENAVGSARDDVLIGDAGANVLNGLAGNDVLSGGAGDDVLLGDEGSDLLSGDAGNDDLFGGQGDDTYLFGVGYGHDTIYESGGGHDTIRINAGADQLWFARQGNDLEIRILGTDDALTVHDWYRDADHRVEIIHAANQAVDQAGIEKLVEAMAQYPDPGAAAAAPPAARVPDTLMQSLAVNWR

Sequence of Edema Factor (EF) (P40136 34-800 limits assumed): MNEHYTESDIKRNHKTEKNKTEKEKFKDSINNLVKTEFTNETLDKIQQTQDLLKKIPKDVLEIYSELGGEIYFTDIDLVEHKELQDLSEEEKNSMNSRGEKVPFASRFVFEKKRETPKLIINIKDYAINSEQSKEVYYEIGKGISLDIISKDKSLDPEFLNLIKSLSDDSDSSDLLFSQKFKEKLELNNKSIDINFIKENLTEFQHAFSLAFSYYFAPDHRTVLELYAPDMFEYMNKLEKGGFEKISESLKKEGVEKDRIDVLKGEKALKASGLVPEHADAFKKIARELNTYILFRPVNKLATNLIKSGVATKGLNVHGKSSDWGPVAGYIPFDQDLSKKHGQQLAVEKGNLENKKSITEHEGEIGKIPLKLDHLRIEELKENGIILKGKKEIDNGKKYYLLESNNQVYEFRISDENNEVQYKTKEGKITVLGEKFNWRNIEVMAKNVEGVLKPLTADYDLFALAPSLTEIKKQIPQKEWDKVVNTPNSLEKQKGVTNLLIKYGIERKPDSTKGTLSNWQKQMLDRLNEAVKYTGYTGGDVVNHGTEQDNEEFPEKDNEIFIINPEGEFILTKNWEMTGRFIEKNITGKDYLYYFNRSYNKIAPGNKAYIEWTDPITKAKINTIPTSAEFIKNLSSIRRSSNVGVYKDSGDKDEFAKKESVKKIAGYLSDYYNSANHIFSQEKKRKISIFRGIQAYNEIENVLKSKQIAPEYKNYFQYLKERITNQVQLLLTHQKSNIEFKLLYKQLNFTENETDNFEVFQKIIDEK

SMILES | IC50 (Edema Factor (EF)) | concentration at which EF activity is inhibited (Edema Factor (EF)) | inhibition at 100 µM (Edema Factor (EF)) | inhibition at 10 µM (Edema Factor (EF); read-out: inhibition of EF enzymatic activity) | effect on the ability of CaM to associate with CaM-binding peptide from CyaA (calmodulin (CaM)) | fluorescence anisotropy (r) of P233-254 peptide (calmodulin (CaM); with equimolar CaM) | fluorescence anisotropy (r) of P233-254 peptide (calmodulin (CaM); without CaM) | inhibition of enzymatic activity of the preformed EF-CaM complex (preformed EF-CaM complex) | inhibition of CyaA activity [1]
O=C(Nc1ccc(Cl)c(Cl)c1)Nc1cc(-c2ccccc2)sc1C(=O)O [TUAdiCl] | 2000 to 3000 nM | less than 10 μM | 98 ± 6% | > 80% | no effect | 0.095 | 0.027 | significantly inhibit | –
O=C(Nc1ccc(Cl)c(Cl)c1)Nc1cc(-c2ccccc2)sc1C(=O)O [drawing 10] | – | – | – | – | – | – | – | – | inhibit CyaA activity
